This test has as its system Mycolicibacterium smegmatis. The experiment in a line: Antimicrobial activity against Mycobacterium smegmatis incubated for 18 hrs by Alamar blue assay. The class given is functional. A general note: Alamar Blue is a resazurin reagent that responds to reducing activity.

Values after ≈ are worked out from the molar mass of the structure shown.

Compound `CCCCCCCCCCNS(N)(=O)=O` came in with an MIC90 of 500 µg/mL (≈ 2120 µM).
In the case of `CCCCCCNS(=O)(=O)N[C@H]1OC[C@@H](O)[C@@H](O)[C@@H]1O` it was more than 1000 µg/mL.
With `CCCCCCCCNS(=O)(=O)N[C@H]1OC[C@@H](O)[C@@H](O)[C@@H]1O`, the MIC90 was found to be 500 µg/mL (≈ 1470 µM).
`CCCCCCCCCCNS(=O)(=O)N[C@H]1OC[C@@H](O)[C@@H](O)[C@@H]1O` had an MIC90 of 62 µg/mL (≈ 168 µM).
As to `CCCCCCCCCCCCNS(=O)(=O)N[C@H]1OC[C@@H](O)[C@@H](O)[C@@H]1O`, the MIC90 stood at 250 µg/mL (≈ 630 µM).
The value for `CCCCCCCCCCCCCCNS(=O)(=O)N[C@H]1OC[C@@H](O)[C@@H](O)[C@@H]1O` was more than 1000 µg/mL; that for `CCCCCCN(CCCCCC)S(=O)(=O)N[C@H]1OC[C@@H](O)[C@@H](O)[C@@H]1O` was 125 µg/mL (≈ 315 µM); that for `CCCCCCCCN(CCCCCCCC)S(=O)(=O)N[C@H]1OC[C@@H](O)[C@@H](O)[C@@H]1O` was 500 µg/mL (≈ 1100 µM).
As for `CCCCCCCCCCN(CCCCCCCCCC)S(=O)(=O)N[C@H]1OC[C@@H](O)[C@@H](O)[C@@H]1O`, the MIC90 is more than 1000 µg/mL.
The value for `CCCCCCCCCCCCN(CCCCCCCCCCCC)S(=O)(=O)N[C@H]1OC[C@@H](O)[C@@H](O)[C@@H]1O` was more than 1000 µg/mL; that for `CC(C)CCCC(C)CCNS(=O)(=O)N[C@H]1OC[C@@H](O)[C@@H](O)[C@@H]1O` (stereo not given in full) was 125 µg/mL (≈ 339 µM); that for `O=S(=O)(NCCOCCO)N[C@H]1OC[C@@H](O)[C@@H](O)[C@@H]1O` was more than 1000 µg/mL.
The value for `O=S(=O)(NCCOCCOCCO)N[C@H]1OC[C@@H](O)[C@@H](O)[C@@H]1O` was more than 1000 µg/mL.
`O=S(=O)(NCCOCCOCCOCCO)N[C@H]1OC[C@@H](O)[C@@H](O)[C@@H]1O`: the MIC90 was more than 1000 µg/mL.
The value for `NNC(=O)c1ccncc1` [ISONIAZID] was 4 µg/mL (≈ 29.2 µM).

The MIC90 is an inhibitory concentration at the 90% level, which refers to growth in some studies and to a panel of isolates in others. Low readings indicate higher susceptibility, high ones lower susceptibility.

(Values after ChEMBL document CHEMBL3616474, “Synthesis of arabinose glycosyl sulfamides as potential inhibitors of mycobacterial cell wall biosynthesis” (2015).)
